ChEMBL document CHEMBL1201862, “PubChem BioAssay data set” (2004)
Values joined by “and” are separate entries in the source; they are usually repeats but may differ in a detail not shown here. Identical values can stand only once. Active and inactive are the calls of the source. For most assays here, no stated cut-off is given here; in the data, actives have a measured EC50 and inactives only a lower limit.

Key:
[1] = HEp-2 cell cytotoxicity, dose response, cytotoxicity control for RSV inhibitor project, HTS (AID 2410); assay type: functional; settings: human respiratory syncytial virus
[2] = tested on: Streptococcus sp. 'group A'; experiment: growth inhibition of control SK(-) GAS strain, dose response, counter-screen for streptokinase expression inhibitor project, luminescence, kanamycin, BacTiterGlo, confirmation (AID 1900); assay type: functional, organism-based
[3] = biological target: T1, Streptokinase A (Streptococcus pyogenes serotype M1, UniProt P10520); experiment: S. pyogenes streptokinase expression inhibitors, potency, dose response, plasminogen activation absorbance, OD405 (AID 1914); assay type: functional, Streptococcus pyogenes M1 GAS;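 further: secreted streptokinase activity via plasminogen activation per viability signal from cell pellet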
T1 sequence (P10520 whole entry): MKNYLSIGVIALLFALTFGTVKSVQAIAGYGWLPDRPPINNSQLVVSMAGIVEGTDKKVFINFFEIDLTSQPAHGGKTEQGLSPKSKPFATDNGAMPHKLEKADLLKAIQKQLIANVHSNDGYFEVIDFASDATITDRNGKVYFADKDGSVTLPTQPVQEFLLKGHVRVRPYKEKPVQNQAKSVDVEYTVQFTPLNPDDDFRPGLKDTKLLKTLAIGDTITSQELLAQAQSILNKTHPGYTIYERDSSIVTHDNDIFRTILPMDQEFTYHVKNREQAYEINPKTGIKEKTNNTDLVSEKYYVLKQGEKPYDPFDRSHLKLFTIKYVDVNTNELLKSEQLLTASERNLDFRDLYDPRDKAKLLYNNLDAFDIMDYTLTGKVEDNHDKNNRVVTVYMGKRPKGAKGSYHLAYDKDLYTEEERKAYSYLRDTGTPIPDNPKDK

[4] = tested on: Streptococcus; experiment: Group A Streptococcus viability loss, dose response, counter-screen for streptokinase expression inhibitor project, luminescence, BacTiterGlo (AID 1915); assay type: functional, organism-based;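 further: potency for reduction of bacterial viability or growth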
[5] = biological target: Paired box protein Pax-8 (Homo sapiens, UniProt Q06710); experiment: inhibitors of PAX8-driven TPO luciferase reporter, dose response, RMG-I cells, cherry-pick (AID 687027); assay type: functional, cell-based;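 further: luciferase reporter driven by Pax8 target thyroperoxidase promoter measured by SteadyGlo luminescence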
Paired box protein Pax-8, sequence (Q06710 whole entry): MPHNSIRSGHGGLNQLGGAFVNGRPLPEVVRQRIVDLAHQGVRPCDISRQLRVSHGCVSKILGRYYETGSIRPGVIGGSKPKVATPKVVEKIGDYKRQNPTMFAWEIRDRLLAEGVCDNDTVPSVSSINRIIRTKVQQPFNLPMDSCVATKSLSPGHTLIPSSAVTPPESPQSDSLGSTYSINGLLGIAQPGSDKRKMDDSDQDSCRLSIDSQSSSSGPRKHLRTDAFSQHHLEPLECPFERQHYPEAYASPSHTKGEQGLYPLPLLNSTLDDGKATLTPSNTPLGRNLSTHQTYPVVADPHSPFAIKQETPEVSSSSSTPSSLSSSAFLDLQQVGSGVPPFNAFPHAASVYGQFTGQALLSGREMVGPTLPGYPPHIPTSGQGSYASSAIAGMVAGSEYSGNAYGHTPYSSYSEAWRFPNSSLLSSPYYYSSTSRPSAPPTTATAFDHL

[6] = Luminescence Cell-Based Dose Retest to Confirm Inhibitors of Cancer Stem Cells. [Related pubchem assays (depositor defined):AID2717, AID2721]; assay type: functional; settings: Homo sapiens
[7] = cytotoxicity toward NIH3T3 fibroblasts, dose response, counter-screen, cell-based, ATP luminescence, mouse fibroblasts (AID 2010); assay type: functional;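 further: cells exposed to compound for about 90 hours before reading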
[8] = inhibitors of intracellular T. cruzi replication, confirmation, NIH3T3 host cells, beta-gal luminescence (AID 2044); assay type: functional, cell-based;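 further: intracellular parasites grown in NIH/3T3 mouse fibroblasts as host cells; luminescent beta-galactosidase reporter signal from transgenic T. cruzi replicating inside host cells; inhibitors lower the luminescence signal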
[9] = biological target: Cytochrome P450 3A4 (Homo sapiens, UniProt P08684);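 further: CYP3A4 tested as one member of a cytochrome P450 panel screen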
Cytochrome P450 3A4, sequence (P08684 whole entry): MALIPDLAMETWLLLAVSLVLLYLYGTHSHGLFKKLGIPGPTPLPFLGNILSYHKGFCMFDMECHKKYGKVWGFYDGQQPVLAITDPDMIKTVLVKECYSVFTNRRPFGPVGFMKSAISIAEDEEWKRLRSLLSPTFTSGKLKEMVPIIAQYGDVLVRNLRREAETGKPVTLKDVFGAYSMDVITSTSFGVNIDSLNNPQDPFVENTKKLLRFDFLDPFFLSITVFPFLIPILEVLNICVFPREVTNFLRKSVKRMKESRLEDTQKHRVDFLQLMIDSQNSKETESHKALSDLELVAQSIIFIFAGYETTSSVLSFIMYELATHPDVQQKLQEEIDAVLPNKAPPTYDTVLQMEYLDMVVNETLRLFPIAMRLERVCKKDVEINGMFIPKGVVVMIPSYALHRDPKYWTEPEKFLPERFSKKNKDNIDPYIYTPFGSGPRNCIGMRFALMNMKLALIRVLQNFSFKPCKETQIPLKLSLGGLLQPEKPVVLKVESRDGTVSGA

SMILES: CCN(CC(=O)Nc1c(C(=O)OC)[nH]c2ccc(C)cc12)c1ccc2c(c1)OCO2
- CC50 [1]: > 50 µM (active)

SMILES: COc1ccc(CN2CCc3ccc(NC(=O)c4ccncc4)cc3C2)c(F)c1
- EC50 [2]: > 150 µM (not active)
- EC50 [3]: > 150 µM (not active)
- EC50 [4]: > 150 µM (not active)

SMILES: CCC1(C)Cc2ccccc2-c2nc(-c3ccccc3)oc(=O)c21 (stereo not drawn)
- EC50 [2]: 14 µM (active)
- EC50 [3]: 13.2 µM (active)
- EC50 [4]: > 150 µM (not active)

SMILES: O=C(c1cccc(F)c1)N1CCN(c2cc(N3CCCCC3)c(F)cc2[N+](=O)[O-])CC1
- CC50 [1]: 22.2 µM (active)

SMILES: Cn1nnnc1Sc1ncnc2scc(-c3cccc4c3sc3ccccc34)c12
- AC50 [5]: 3.89 µM (active)
- AC50 [6]: 1.25 µM (active)

SMILES: COc1ccc(Br)cc1C(=O)Nc1ccccc1N1CCN(C(=O)c2ccccc2)CC1
- EC50 [7]: > 60 µM (not active)
- CC50 [1]: 29 µM (active)
- EC50 [8]: 1.46 µM (active)

SMILES: COc1ccccc1-c1c(C)nn2c(N)c(-c3ccccc3)cnc12
- CC50 [1]: 24.2 µM (active)

SMILES: Cc1cccc(-n2cc(-c3ccccc3)c3c(N4CCOCC4)ncnc32)c1
- AC50 [6]: 5.24 µM (active)

SMILES: CC(C)c1ccc(C(=O)NCCCN(C)C)cc1
- EC50 [7]: > 60 µM (not active)
- EC50 [8]: 1.27 µM (active)

SMILES: CC1=C(C(N)=O)C(c2cccnc2)n2nc(-c3cccc(C)c3)nc2N1 (stereo not drawn)
- EC50 [7]: > 60 µM (not active)
- EC50 [8]: > 60 µM (not active)

SMILES: Cc1cc(C)c2c(C(C)(C)C)nn(-c3ccccc3)c2n1
- EC50 [2]: 15.1 µM (active)
- EC50 [3]: 30.2 µM (active)
- EC50 [4]: 15.7 µM (active)

SMILES: Cc1nnc(SCC2=C(C(=O)O)N3C(=O)C(NC(=O)c4cc(F)c(F)cc4Cl)C3SC2)s1 (stereo not drawn)
- EC50 [2]: 0.515 µM (active)
- EC50 [3]: > 150 µM (not active)
- EC50 [4]: 0.815 µM (active)

SMILES: S=C(Nc1ccccc1)Nc1nc2ccccc2n1CCOc1ccc(Br)cc1
- AC50 [6]: 11.6 µM (active)

SMILES: CON(C)C(=O)c1nnc2c3ccccc3n(S(=O)(=O)c3ccc(C)cc3)c2n1
- AC50 [9]: 3.98 µM (inconclusive) and 3.16 µM (inconclusive)

SMILES: O=C(/C=C/c1ccccc1)NCCc1ccccc1
- EC50 [2]: > 150 µM (not active)
- EC50 [3]: 48.7 µM (active)
- EC50 [4]: > 150 µM (not active)

SMILES: COc1ccc(NC(=O)N2CC3(CCN(C(=O)c4ccncc4)CC3)C2)cc1
- AC50 [9]: 15.8 µM (inconclusive)

SMILES: C[C@H](CO)N1C[C@H](C)[C@@H](CN(C)S(=O)(=O)c2ccc(F)cc2)Oc2ccc(NC(=O)Nc3ccc(C(F)(F)F)cc3)cc2C1=O
- AC50 [6]: 4.25 µM (active)

SMILES: COc1ccc(N2CCN(C(S)=Nc3cc(C)ccc3C)CC2)cc1
- AC50 [9]: 3.16 µM (inconclusive)

SMILES: COCCNC(=O)CCC1CCN(Cc2ccc(-c3ccccc3)cc2)CC1
- EC50 [7]: > 60 µM (not active)
- EC50 [8]: 1.77 µM (active)

SMILES: O=C(CN1CCCC1)Nc1ccc(NC(=O)Nc2ccccc2)cc1
- EC50 [2]: > 150 µM (not active)
- EC50 [3]: > 150 µM (not active)
- EC50 [4]: > 150 µM (not active)

SMILES: CCN(CC(=O)Nc1ccc(S(=O)(=O)N2CCCCC2)cc1)Cc1ccccc1
- CC50 [1]: 28 µM (active)

SMILES: Nc1ncc2c(n1)-c1cc(Cl)ccc1SC2
- EC50 [7]: > 60 µM (not active)
- EC50 [8]: 1.55 µM (active)

SMILES: COc1ccc(C)cc1NC(=O)CNC(c1ccccc1)c1ccccc1
- EC50 [2]: 28.9 µM (active)
- EC50 [3]: > 150 µM (not active)
- EC50 [4]: 96.1 µM (active)

SMILES: CC12CCC3c4ccc(O)cc4CCC3C1CCC2=O (stereo not drawn)
- CC50 [1]: 29.6 µM (active)

SMILES: CC(=O)NNc1cccc(Cl)n1
- AC50 [6]: > 195 µM (inactive)

SMILES: Cc1ccsc1C1C=C(c2cccc(Br)c2)Nc2ncnn21 (stereo not drawn)
- EC50 [2]: 7.49 µM (active)
- EC50 [3]: > 150 µM (not active)
- EC50 [4]: > 150 µM (not active)

SMILES: CN(C)Cc1c[nH]c2ccccc12 [GRAMINE]
- AC50 [9]: 3.16 µM (inconclusive)

SMILES: CCC1CCc2sc(C(=O)NC3CCN(Cc4ccccc4)CC3)cc2C1 (stereo not drawn)
- EC50 [7]: 5.09 µM (active)
- EC50 [8]: 0.48 µM (active)

SMILES: COc1ccc(/N=C2\SC(CC(=O)Nc3ccccc3F)C(=O)N2Cc2ccco2)cc1 (stereo not drawn)
- CC50 [1]: 25.1 µM (active)

SMILES: CC(=O)OC[C@@H]1O[C@H](CCO/N=C(\C)CCN2CCCc3nc(C)c(C)cc32)C=C[C@@H]1OC(C)=O
- AC50 [9]: 3.98 µM (inconclusive)

SMILES: Cc1c(Cl)cnc(NC(=O)COC(=O)CCS(=O)(=O)c2ccccc2)c1Cl
- AC50 [9]: 15.8 µM (inconclusive)

SMILES: CCOc1ccc(-c2nnc3ccc(SC(C)C)nn23)cc1
- EC50 [2]: 2.79 µM (active)
- EC50 [3]: > 150 µM (not active)
- EC50 [4]: 22.9 µM (active)

SMILES: COC(=O)c1ccc(C(=O)OC)c(NC(=O)CN(C)Cc2cccc(Cl)c2Cl)c1
- EC50 [2]: 11.2 µM (active)
- EC50 [3]: 13.9 µM (active)
- EC50 [4]: > 150 µM (not active)

SMILES: CCN(CC)C(=O)N[C@H]1C[C@H]2c3cccc4[nH]cc(c34)C[C@@H]2N(C)C1
- AC50 [9]: 10 µM (inconclusive)

SMILES: O=C(Nc1ccccc1Cl)c1cccc(COc2cc(Cl)ccc2Cl)c1
- CC50 [1]: > 50 µM (active)

SMILES: CC(C)Oc1ccc(C(=O)Nc2nnc(C3=COCCO3)o2)cc1
- EC50 [2]: 0.766 µM (active)
- EC50 [3]: > 150 µM (not active)
- EC50 [4]: 14.8 µM (active)

SMILES: CCCCCn1c(=O)[nH]c2cc(C(=O)NCCCN(C)Cc3ccccc3)ccc2c1=O
- EC50 [7]: > 60 µM (inconclusive)
- EC50 [8]: 0.911 µM (active)

SMILES: O=c1c2ccc([N+](=O)[O-])cc2ncn1CCOc1ccc(Cl)cc1
- EC50 [7]: > 30 µM (not active)
- EC50 [8]: 0.145 µM (active)

SMILES: C=CCn1c2ccccc2c2nnc(SCc3nc(O)[nH]c3C(=O)CCCCC(=O)OCC)nc21
- CC50 [1]: > 50 µM (active)

SMILES: O=C(Nc1cccc([N+](=O)[O-])c1)C12CC3CC(C1)CC(n1cnc([N+](=O)[O-])n1)(C3)C2
- EC50 [7]: > 60 µM (not active)
- EC50 [8]: 0.102 µM (active)

SMILES: Clc1ccc(-c2csc(N/N=C\c3cccnc3)n2)cc1
- EC50 [7]: > 60 µM (not active)
- EC50 [8]: 1.84 µM (active)

SMILES: Cc1nn(CC(=O)Nc2c(F)c(F)cc(F)c2F)c(=O)c2cccn12
- EC50 [2]: > 150 µM (not active)
- EC50 [3]: > 150 µM (not active)
- EC50 [4]: > 150 µM (not active)

SMILES: CCS(=O)(=O)N1Cc2ccccc2CC1C(=O)Nc1nnc(SCc2c(Cl)cccc2Cl)s1 (stereo not drawn)
- AC50 [5]: 34.9 µM (active)

SMILES: Cc1ccc(CN2CCCC(C(=O)c3sccc3C)C2)o1 (stereo not drawn)
- EC50 [7]: > 60 µM (not active)
- EC50 [8]: 0.719 µM (active)

SMILES: COc1cccc2cc(-c3csc(CCn4nc(C)cc4C)n3)c(=O)oc12
- CC50 [1]: 41.8 µM (active)

SMILES: Cc1ccc(Nc2cc(C)nc(-c3ccccc3O)n2)cc1
- CC50 [1]: 14.6 µM (active)

SMILES: COc1ccc2c(c1)CCC1=C2N=C(S)NC1c1ccc(N(C)C)cc1 (stereo not drawn)
- EC50 [7]: > 60 µM (not active)
- EC50 [8]: 2.62 µM (active)

SMILES: COc1ccccc1CNc1ccnc(-c2ccccc2Cl)n1
- AC50 [9]: 2.51 µM (inconclusive)

SMILES: Cc1ccc(CN2CCN(Cc3ccc(-n4cccn4)cc3C)CC2CCO)cc1 (stereo not drawn)
- EC50 [7]: > 30 µM (not active)
- EC50 [8]: 0.651 µM (active)

SMILES: Cc1cccc(NC(=O)c2[nH]cnc2C(=O)N[C@@H](Cc2ccccc2)C(=O)OC(C)(C)C)c1
- EC50 [2]: 2.46 µM (active)
- EC50 [4]: 3.87 µM (active)

SMILES: O=C(NCC1CCCO1)c1ccc([N+](=O)[O-])s1 (stereo not drawn)
- EC50 [7]: > 30 µM (not active)
- EC50 [8]: 0.728 µM (active)

SMILES: COc1ccc(-c2nc3cnc(Nc4cccc(OC)c4)nc3n(Cc3cccs3)c2=O)cc1
- AC50 [9]: 6.31 µM (inconclusive)

SMILES: COC(=O)C1=CN(Cc2ccc(OC)c(OC)c2)C=C(C(=O)OC)C1c1cccc(O)c1
- EC50 [7]: > 60 µM (not active)
- EC50 [8]: 0.311 µM (active)

SMILES: CC[C@H]1CC2CN3CCc4c([nH]c5c([C@H]6C[C@H]7[C@H](CC)CN(C)[C@@H](Cc8c6[nH]c6ccccc86)[C@H]7C(=O)OC)c(OC)ccc45)C(C(=O)OC)(C2)C13
- AC50 [6]: 1.99 µM (active)

SMILES: C[C@@H]1CN([C@H](C)CO)C(=O)c2cc(NC(=O)Nc3ccc(C(F)(F)F)cc3)ccc2O[C@@H](C)CCCCO[C@H]1CN(C)Cc1ccccc1
- AC50 [5]: 12.2 µM (active)

SMILES: COc1ccc(/C=N/NC(=O)CCn2cnc(-c3ccccc3)c2-c2ccccc2)cc1OC
- AC50 [6]: 0.404 µM (active)

SMILES: CCCCn1c(=N)n(CC(=O)C(C)(C)C)c2ccccc21
- EC50 [7]: > 60 µM (not active)
- EC50 [8]: 5.54 µM (active)

SMILES: O=Cc1ccc(Oc2cc(-c3ccccc3)nc(-c3ccccc3)n2)cc1
- AC50 [6]: 3.14 µM (active)

SMILES: Cc1cc(=O)oc2c3c(cc(OCC(=O)NC4CC4)c12)OC(C)(C)CC3
- EC50 [2]: > 150 µM (not active)
- EC50 [3]: > 150 µM (not active)
- EC50 [4]: > 150 µM (not active)

SMILES: C/C(=N\c1ccc(C)cc1C)c1sc2ccccc2c1O
- CC50 [1]: 17.8 µM (active)

SMILES: Cc1nn2c(N3CCN(C)CC3)cc(C(C)(C)C)nc2c1-c1ccccc1
- EC50 [7]: 4.77 µM (active)
- EC50 [8]: 0.145 µM (active)

SMILES: COC(=O)c1cc(=O)n(Cc2cccs2)/c(=N/c2ccccc2)s1
- AC50 [6]: 5.15 µM (active)
